These results are taken from the supplement of paper PMC11208160.
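Also: IS621 bridge recombinase in Escherichia coli cells against a fixed T5 target plasmid.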

This data set is described as follows: recombinant UMI read abundance after kanamycin selection (control-corrected) (log10(CPM+1)); higher = more efficient recombination; extreme values may be limits of the assay; sequences stand for … in AGTGCAGAGAAAATCGGCCAGTTTTCTCTGCCTGCAGTCCGCATGCCGTGGGACCCCTTGGGTTCTAACCTGTTGCCTAGATTTATGCAGCGGACTGCCTTTCTCCCAAAGTGATAAACCGG…AGGTTGGTTTCACT; site = the 11-nt donor. In a few lines:
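After plating on IPTG (0.07 mM) plus kanamycin, or unselected, in two replicates, recombinant UMIs were PCR-amplified across the donor–target junction and sequenced. The cells were Escherichia coli co-electroporated with a UMI-tagged donor and donor-binding-loop pair library and a target plasmid with a fixed target and T7-inducible IS621 bridge recombinase. Values are log10(CPM+1), with CPM averaged over replicates and scaled by control-derived factors.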
“CAATGCTCATGGACCGGTTTTCCCGGTAATCCGTATTTGGA (site CAATGCTCTTC)”: the “recombinant UMI read abundance (log10)” value is 2.46.
On to “CAATGCTCATGGACCGGTTTTCCCGGTAATCCGTATTTGGA (site CAATGCTCTTG)”, for which the “recombinant UMI read abundance (log10)” value worked out at 1.83.
Then “CAATGCTCATGGACCGGTTTTCCCGGTAATCCGTATTTGGA (site CAATGCTCTTT)”, with 2.45.
The result for “CAATTCACATGGACCGGTTTTCCCGGTAATCCGTATTTGCT (site CAATTCACTAG)” reads 1.32; that for “CAATTCACATGGACCGGTTTTCCCGGTAATCCGTATTTGCT (site CAATTCCCTAG)”, 0.
As for “CAATTCACATGGACCGGTTTTCCCGGTAATCCGTATTTGCT (site CAATTCGCTAG)”, the “recombinant UMI read abundance (log10)” value was determined as 0.587.
Then “CAATTCACATGGACCGGTTTTCCCGGTAATCCGTATTTGCT (site CAATTCTCTAG)”, with 0; and “CAATTCCCATGGACCGGTTTTCCCGGTAATCCGTATTTGCC (site CAATTCCCTAG)”, with 0.635; and “CAATTCCCATGGACCGGTTTTCCCGGTAATCCGTATTTGCC (site CAATTCCCTCG)”, with 0.0185.
The result for “CAATTCCCATGGACCGGTTTTCCCGGTAATCCGTATTTGCC (site CAATTCCCTGG)” reads 0.
On to “CAATTCCCATGGACCGGTTTTCCCGGTAATCCGTATTTGCC (site CAATTCCCTTG)”, for which the “recombinant UMI read abundance (log10)” value was determined as 0.
Then “CAATTCCCATGGACCGGTTTTCCCGGTAATCCGTATTTGGT (site CAATTCCCTAA)”, with 0.173; and “CAATTCCCATGGACCGGTTTTCCCGGTAATCCGTATTTGGT (site CAATTCCCTAC)”, with 0.529; and “CAATTCCCATGGACCGGTTTTCCCGGTAATCCGTATTTGGT (site CAATTCCCTAG)”, with 0.
Turning to “CAATTCCCATGGACCGGTTTTCCCGGTAATCCGTATTTGGT (site CAATTCCCTAT)”, the “recombinant UMI read abundance (log10)” value is 0.681.
Take “CAATTGACATGGACCGGTTTTCCCGGTAATCCGTATTTGAA (site CAATTGACTTT)”: the “recombinant UMI read abundance (log10)” value amounted to 2.17.
The result for “CAATTTCCATGGACCGGTTTTCCCGGTAATCCGTATTTGCT (site CAATTACCTAG)” reads 0; that for “CAATTTCCATGGACCGGTTTTCCCGGTAATCCGTATTTGCT (site CAATTCCCTAG)”, 0.761.
The result for “CAATTTCCATGGACCGGTTTTCCCGGTAATCCGTATTTGCT (site CAATTGCCTAG)” reads 0.00704; that for “CAATTTCCATGGACCGGTTTTCCCGGTAATCCGTATTTGCT (site CAATTTCCTAG)”, 1.08; that for “CACAAATCATGGACCGGTTTTCCCGGTAATCCGTATTTGAC (site CACAAATCTGT)”, 1.62.
Then “CACAGCCCATGGACCGGTTTTCCCGGTAATCCGTATTTGTT (site CACAGCCCTAA)”, with 0.97.
On to “CACAGCCCATGGACCGGTTTTCCCGGTAATCCGTATTTGTT (site CACCGCCCTAA)”, for which the “recombinant UMI read abundance (log10)” value turned out to be 0.00684.
For “CACAGCCCATGGACCGGTTTTCCCGGTAATCCGTATTTGTT (site CACGGCCCTAA)”, the “recombinant UMI read abundance (log10)” value turned out to be 0.0224.
“CACAGCCCATGGACCGGTTTTCCCGGTAATCCGTATTTGTT (site CACTGCCCTAA)”: the “recombinant UMI read abundance (log10)” value came out at 0.018.
Take “CACAGTGCATGGACCGGTTTTCCCGGTAATCCGTATTTGAT (site CACAGTGCTAT)”: the “recombinant UMI read abundance (log10)” value was found to be 2.52.
Regarding “CACATGGCATGGACCGGTTTTCCCGGTAATCCGTATTTGCC (site CACATGGCTGG)”, the “recombinant UMI read abundance (log10)” value was 0.
Turning to “CACCCTACATGGACCGGTTTTCCCGGTAATCCGTATTTGAG (site CACCCTACTCT)”, the “recombinant UMI read abundance (log10)” value amounted to 1.27.
The result for “CACCCTACATGGACCGGTTTTCCCGGTAATCCGTATTTGAG (site CCCCCTACTCT)” reads 0.0201; that for “CACCCTACATGGACCGGTTTTCCCGGTAATCCGTATTTGAG (site CGCCCTACTCT)”, 0.0118; that for “CACCCTACATGGACCGGTTTTCCCGGTAATCCGTATTTGAG (site CTCCCTACTCT)”, 0.0244.
Consider “CACCCTACATGGACCGGTTTTCCCGGTAATCCGTATTTGGC (site CACCCTACTGC)”, for which the “recombinant UMI read abundance (log10)” value was 2.59.
The result for “CACCTTACATGGACCGGTTTTCCCGGTAATCCGTATTTGTC (site CACCTTACTGA)” reads 0; that for “CACGACCCATGGACCGGTTTTCCCGGTAATCCGTATTTGTT (site CACGACCCTAA)”, 0.631; that for “CACGACCCATGGACCGGTTTTCCCGGTAATCCGTATTTGTT (site CACGCCCCTAA)”, 0.0282.
Turning to “CACGACCCATGGACCGGTTTTCCCGGTAATCCGTATTTGTT (site CACGGCCCTAA)”, the “recombinant UMI read abundance (log10)” value amounted to 0.0138.
Consider “CACGACCCATGGACCGGTTTTCCCGGTAATCCGTATTTGTT (site CACGTCCCTAA)”, for which the “recombinant UMI read abundance (log10)” value was determined as 0.00755.
The result for “CACGCATCATGGACCGGTTTTCCCGGTAATCCGTATTTGAT (site CACGCATCTAT)” reads 2.51; that for “CACGCGACATGGACCGGTTTTCCCGGTAATCCGTATTTGGC (site CACGCGACTGC)”, 2.94.
The result for “CACGCTCCATGGACCGGTTTTCCCGGTAATCCGTATTTGTC (site CACGCTCCTGA)” reads 2.39; that for “CACGGACCATGGACCGGTTTTCCCGGTAATCCGTATTTGTT (site CACGGACCTAA)”, 0.00996.
The result for “CACGGACCATGGACCGGTTTTCCCGGTAATCCGTATTTGTT (site CACGGCCCTAA)” reads 0.403.
As for “CACGGACCATGGACCGGTTTTCCCGGTAATCCGTATTTGTT (site CACGGGCCTAA)”, the “recombinant UMI read abundance (log10)” value is 0.387.
The result for “CACGGACCATGGACCGGTTTTCCCGGTAATCCGTATTTGTT (site CACGGTCCTAA)” reads 0; that for “CACGGCCCATGGACCGGTTTTCCCGGTAATCCGTATTTGCT (site CACGGCCCTAA)”, 0.0432.
Take “CACGGCCCATGGACCGGTTTTCCCGGTAATCCGTATTTGCT (site CACGGCCCTAC)”: the “recombinant UMI read abundance (log10)” value was 0.0286.
With “CACGGCCCATGGACCGGTTTTCCCGGTAATCCGTATTTGCT (site CACGGCCCTAG)”, the “recombinant UMI read abundance (log10)” value amounted to 1.12.
On to “CACGGCCCATGGACCGGTTTTCCCGGTAATCCGTATTTGCT (site CACGGCCCTAT)”, for which the “recombinant UMI read abundance (log10)” value amounted to 0.636.
Then “CACGGCCCATGGACCGGTTTTCCCGGTAATCCGTATTTGTG (site CACGGCCCTAA)”, with 0.0211; and “CACGGCCCATGGACCGGTTTTCCCGGTAATCCGTATTTGTG (site CACGGCCCTCA)”, with 0.0766.
As for “CACGGCCCATGGACCGGTTTTCCCGGTAATCCGTATTTGTG (site CACGGCCCTGA)”, the “recombinant UMI read abundance (log10)” value was determined as 0.
On to “CACGGCCCATGGACCGGTTTTCCCGGTAATCCGTATTTGTG (site CACGGCCCTTA)”, for which the “recombinant UMI read abundance (log10)” value was found to be 0.00311.
